# Test results as given in patent publication US9029080B2, “Screening assay for insecticides” (priority 2008, dated 2015).
# Legend:
# [1] = target: T1, octopamine receptor (OctR) (Drosophila melanogaster, UniProt Q9VCZ3); assay: Transient OctR expression in CHO G-alpha-16 cells, Fluo-4, Discovery microscope; assay type: cell-based
# T1 construct: various amounts of untagged OctR-pcDNA3.1 DNA were transfected into CHO cells; expressed in transfected cells; host or cells: CHO stably expressing G-alpha-16, transient transfection
# T1 sequence (Q9VCZ3 1-508): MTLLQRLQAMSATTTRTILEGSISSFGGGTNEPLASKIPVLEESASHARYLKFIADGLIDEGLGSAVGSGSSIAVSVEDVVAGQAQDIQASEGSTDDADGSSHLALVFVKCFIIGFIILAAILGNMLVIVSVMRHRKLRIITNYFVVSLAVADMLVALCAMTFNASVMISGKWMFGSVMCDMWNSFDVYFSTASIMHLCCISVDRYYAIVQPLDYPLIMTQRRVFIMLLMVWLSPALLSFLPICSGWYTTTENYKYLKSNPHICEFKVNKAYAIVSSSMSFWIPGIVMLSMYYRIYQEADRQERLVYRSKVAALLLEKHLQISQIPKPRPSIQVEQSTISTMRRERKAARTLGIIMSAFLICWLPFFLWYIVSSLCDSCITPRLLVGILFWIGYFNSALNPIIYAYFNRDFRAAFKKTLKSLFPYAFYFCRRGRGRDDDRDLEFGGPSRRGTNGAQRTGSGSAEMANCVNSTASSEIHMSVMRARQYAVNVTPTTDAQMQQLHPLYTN
# Experimental: The untagged and GFP-tagged versions of OctR, which natively couples to cAMP, were transiently expressed in CHO cells stably expressing the G-alpha-16 promiscuous G protein, which signals through calcium. This allowed activation of the receptor to be measured by calcium-sensing fluorescent dyes.
# In FIG. 55A, various amounts of untagged OctR-pcDNA3.1 DNA were transfected into CHO cells (6-well dish, 300,000 cells/well) and tested for function at 48 hours using Fluo-4 dye on the Discovery microscope. The graph shown below represents an average of all single-cell readings from cells expressing the cyan vector. It is assumed that the majority of cells expressing the cyan vector also express OctR.
# FIG. 55. Calcium-sensing Fluo-4 fluorescent dye response to octopamine or tyramine stimulation in CHO cells stably expressing G-alpha-16 and transiently expressing increasing amounts of untagged or GFP-tagged OctR-pcDNA3.1. Cells cotransfected with pAmCyan vector as a marker of transfected cells were stimulated with a maximal dose of octopamine or sub-maximal dose of tyramine. Well averages of single-cell response measured on the Discovery microscope are graphed above.
# [2] = target: T2, DmSK Potassium Channel (Drosophila melanogaster, UniProt Q7KVW5); assay: Xenopus laevis oocyte two-electrode voltage clamp of DmSK; assay type: cell-based; details: intracellular injection of 100 mM, oocytes clamped at +5 mV
# T2 construct: expressed in transfected cells; host or cells: Xenopus laevis oocytes injected with in vitro transcribed RNA
# Experimental: Purpose: To utilize the oocyte two-electrode voltage clamp expression system to assay functional expression of the […] Drosophila melanogaster small-conductance calcium-activated potassium channel (SK) within Xenopus laevis oocytes.
# Stage V-VI oocytes were injected with 50 nl of in vitro transcribed DmSK RNA (1 ug/ul) using a Drummond Nanoject Injector (pCRII-SK2+4D plasmid linearized with HindIII and transcribed using the Ambion T7 mMessage mMachine transcription kit).
# Channel expression was assayed using two-electrode voltage clamp (borosilicate glass 1.5 mm×1.12 mm filled with 3M KCl) through a Turbo Tec 10C Amplifier (NPI Instruments) connected to an Apple PowerMac G3 via an ADInstruments PowerLab system.
# Injected oocytes with resting potentials greater than −30 mV were clamped at +5 mV and perfused with ND-96 bath solution (96 mM NaCl, 2 mM KCl, 1 mM MgCl2, 0.3 mM CaCl2, 5 mM HEPES at pH 7.5 and 230 mOsm) Currents measured were filtered at 2 kHz and with a 50/60 Hz HumBug noise eliminator.
# SK channels were activated with intracellular injection of 100 mM […] (9.2 nl) using the nanoject while clamped. Measured currents were compared to published results of SK activation within oocytes (FIG. 85).
# [3] = target: T3, ShaI_delN (Drosophila melanogaster, UniProt P17971); assay: ShaI_delN clonal lines, FLIPR blue membrane potential dye, KCl depolarization; assay type: cell-based; details: 4-5 mM, dye loaded 1 hr at RT
# T3 construct: expressed in transfected cells; host or cells: CHO
# Experimental: ShaI_DelN C10 and C15 were tested for function on the FLIPR using the Molecular Devices blue membrane potential dye. The cells were seeded at 60K cells/well in 96-well Costar plates in complete media and assayed for function at 24 hrs. Depolarization with 15-60 mM KCl caused a 2-2.8 fold higher activity in the clonal line than the pcDNA control cell line (FIG. 5). Clone 10 had slightly higher activity than clone 15.
# FIG. 5: ShaI_DelN clones tested on FLIPR with KCl depolarization. We also tested some known K-channel blockers on channel activity on the FLIPR (FIG. 6). […] The ShaI_delN clonal cell lines lost their GFP expression and assay window with cell passage. At passage 12, only 10-15% of the cell population was GFP positive.
# (§1) The effects of barium (Ba2+) on ShaI_delN function were tested. Barium is known to inhibit some open rectifier and inward rectifier K-channel activities. Cells were dye loaded in the presence of BaCl2 for 1 hr at RT and assayed on the FLIPR using KCl depolarization for channel activation.
# [4] = system: CHO_pcDNA3 control cells; assay: CHO_pcDNA3 control cells, FLIPR KCl depolarization; assay type: cell-based, Chinese hamster; details: 4-5 mM, dye loaded 1 hr at RT
# Experimental: as §1
# [5] = target: T4, ShaI (Drosophila melanogaster, UniProt P17971); assay: ShaI electrophysiology (patch clamp); assay type: cell-based
# T4 construct: expressed in transfected cells; host or cells: CHO
# T4 sequence (P17971 1-490 isoform P17971-1): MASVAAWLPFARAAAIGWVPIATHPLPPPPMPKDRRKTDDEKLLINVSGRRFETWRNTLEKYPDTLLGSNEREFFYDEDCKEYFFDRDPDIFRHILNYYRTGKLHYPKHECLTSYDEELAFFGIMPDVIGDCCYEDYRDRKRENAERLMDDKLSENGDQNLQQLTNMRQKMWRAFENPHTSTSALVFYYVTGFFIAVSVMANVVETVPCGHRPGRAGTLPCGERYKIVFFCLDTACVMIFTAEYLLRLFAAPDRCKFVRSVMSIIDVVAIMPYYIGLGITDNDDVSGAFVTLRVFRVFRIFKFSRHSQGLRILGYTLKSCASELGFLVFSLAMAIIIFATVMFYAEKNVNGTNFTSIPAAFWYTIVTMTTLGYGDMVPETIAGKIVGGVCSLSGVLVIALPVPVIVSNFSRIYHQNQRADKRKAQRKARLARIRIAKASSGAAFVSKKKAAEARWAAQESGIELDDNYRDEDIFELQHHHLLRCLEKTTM
# Experimental: Data were acquired and analyzed using pClamp software (version 9.0.1.16). The whole-cell configuration of the patch-clamp technique was used to voltage clamp cells at room temperature (22-25° C.). Pipettes were pulled from borosilicate glass capillaries (#8250, Garner Glass, Claremont, Calif.) using a DMZ Universal Puller (Zeitz, Munich, Germany) and had resistances of 1-2 MOhm when filled with pipette solution and measured in bath solution. The liquid junction potential between bath and pipette solution was always compensated before the formation of a gigaohm seal.
# Membrane current was measured under whole-cell clamp, sampled at 2 kHz and filtered at 1 kHz by an Axoclamp 200B (Axon Instruments). Capacitance currents were electronically compensated at the beginning of each experiment. P/4 leak correction was applied.
# To study ShaI currents on CHO cells, cells were held at −70 mV and a family of 500 ms test voltage pulses was applied starting from −70 to +70 mV, or +100 mV, in 10 mV increments. The amplitude, as measured for the current-voltage relationship, was defined as the maximal current at a given membrane potential.
# [6] = target: T5, DmSK (Drosophila melanogaster, UniProt Q7KVW5); assay: DmSK CHO membrane potential dye assay, ionomycin activation; assay type: cell-based
# T5 construct: The resulting construct contains the SK CDS downstream of the CMV promoter; expressed in transfected cells; host or cells: CHO-K1 (pool 3 / clone SK3 and subclones)
# Experimental: Basic test protocol: Cells were plated at 5×10^4/well into 96-well poly-D-lysine assay plates (BD Biosciences) and placed at 37 C/5% CO2 the day before testing. Culture medium was aspirated and replaced with 0.4× blue membrane potential dye (Molecular Devices Corporation) in assay buffer and incubated for 1 hour at RT. The assay was run by reading baseline fluorescence for 20 sec, and reading an additional 60 or 180 sec after activation.
# This assay was developed using the Molecular Devices blue membrane potential dye at 0.4× the normal concentration. It is important to vortex the dye upon hydration and rinse the vial repeatedly to ensure that all the dye has been recovered and that it is in solution. The dye can be stored during the day at 4°. Dye loading is carried out by flipping the culture medium from the 96-well poly-D-lysine plate, gently tapping the plate on Kimwipes to remove excess medium, replacing it with 180 ul 0.4× dye per well, and incubating in the dark at room temperature (25° C.-28° C.) for 3-5 hr. The assay plate is now ready for testing which comprises a 20 ul (10×) first addition and 50 ul (5×) second addition. 50 uM propafenone [final] is used as a control inhibitor. The assay is read for three minutes after activation to allow maximum window development relative to controls. […]
# [7] = Ionomycin stability in solution; assay type: physicochemical; details: 5 uM in assay buffer, SK activation
# Experimental: An experiment was conducted (data not shown) to examine the stability of ionomycin in solution. Ionomycin was diluted to 5 uM in assay buffer, loaded into a compound plate and compared with freshly-prepared ionomycin for SK activation the following day. The freshly-prepared ionomycin yielded a statistically significant 6% increase in assay window size, so our recommendation is for freshly-prepared ionomycin.
# [8] = target: T6, octopamine receptor (OctR, CG6919 dmOa2) (Drosophila melanogaster, UniProt Q9VCZ3); assay: OctR clone 55 FLIPR Fluo-4 calcium assay; assay type: cell-based
# T6 construct: expressed in transfected cells; host or cells: CHO stably expressing G-alpha-16
# Experimental: FIG. 62. Cells were plated at 10K/well in 384 well plates and allowed to incubate overnight at […]. The cells were assayed 18-24 hours after seeding. Media was removed and cells were dye loaded for 60 minutes with 2 μM Fluo-4. After 1 hour, dye was removed and 20 μl of buffer added to the plate and placed into FLIPR. The 1st addition was antagonist dose response curves and the 2nd addition was agonist dose response curves. Antagonists were challenged with 100 nM Octopamine. In addition, these compounds were tested in the parental cell line CHO-Galpha16.
# Cells were plated at 10,000 cells/well in 50 μl into 384-well black TC plates and allowed to incubate overnight at 37° C./5% CO2. The cells were assayed 18-24 hours after seeding. Culture medium was removed by flicking and cells were dye loaded for 60 minutes with 20 μl of 2 μM Fluo-4 in assay buffer plus probenecid at 25° C. After one hour dye was removed by flicking and 20 μL of assay buffer was added, wait 5 min prior to placing into the FLIPR and run using a two-addition protocol. The first addition (20 ul, 2×) was 0.5% DMSO final in assay buffer. The second addition (20 ul, 3×) was either assay buffer or 100 nM octopamine final.
# [9] = Stability of octopamine solutions; assay type: physicochemical
# Experimental: Octopamine was tested comparing freshly diluted versus a 24-hour solution (data not shown). The response obtained with the 24-hour solution stored at room temperature was identical to that of the freshly diluted solution. We have repeatedly […]
# [10] = system: calcium-activated potassium currents; details: DUM neurons from cockroaches; cited from earlier work
smiles,measurement,setting,value
NCCc1ccc(O)cc1 [tyramine],efficacy relative to octopamine,[1]; preliminary data and published reports,only slightly less efficacious
same,activation of octopamine receptor,[1]; sub-maximal dose,activated by tyramine
[Cl][Cd][Cl] [cadmium chloride],activation of DmSK outward currents,[2],outward currents activated by at least three 9.2 nl injections
[Ba+2] [Ba2+],ShaI_delN channel activity with KCl depolarization,[3],without any significant reduction
same,fluorescent responses with KCl depolarization,[4],significantly reduced fluorescent responses
same,ShaI outward currents,[5],not inhibited
C[C@H](CCC(=O)O)C[C@H](C)C[C@H](C)C(=O)/C=C(\O)[C@H](C)C[C@H](C)C/C=C/[C@@H](C)[C@@H](O)[C@@H](C)[C@@H](O)C[C@@H]1CC[C@@](C)([C@H]2CC[C@@](C)([C@@H](C)O)O2)O1 [ionomycin],EC50,[6],200 nM
same,concentration above which no increase in response window,"[6]; SK3, relative to controls",800 nM
same,"increase in assay window size, freshly-prepared versus solution of the day before",[7],6%
NCC(O)c1ccc(O)cc1 (centres unmarked) [octopamine],80% octopamine control concentration,"[8]; 20-plate DMSO test run, 2nd addition",100 nM
same,rank order of potency (agonists),"[8]; clone 55, same as published cAMP data",naphazoline>octopamine>amitraz>clonidine>tolazoline
same,activity after repeated freeze-thaw,[9]; 10 mM DMSO stocks,no reduction in activity
same,response of 24-hour solution versus freshly diluted solution,"[9]; stored at room temperature, data not shown",identical
"CSSC [DMDS, di-methyl disulfide]",effect on calcium-activated potassium currents,[10],inhibits calcium-activated potassium currents
